Results published in patent US7332523B2, “TNP-470 polymer conjugates and use thereof” (Children's Medical Center Corporation, priority 2002, dated 2008).

Legend:
chick aortic ring = assay: Chick aortic ring endothelial sprouting assay; type: cell-based
Method: Aortic arches were dissected from day-14 chick embryos, cut into cross-sectional fragments, and implanted in vitro in Matrigel using a modification of methods previously described (V. Muthukkaruppan, personal communication). When cultured in MCDB-131 medium supplemented with 5% fetal bovine serum, endothelial cells sprouted and vascular channel formation occurred within 24-48 hours.

LLC = assay: Antitumor activity in C57BL/6J mice bearing s.c. LLC; conditions: 30 mg/kg q.o.d. (data not shown)
[1] = tested on: murine, human and metastatic tumors; conditions: mice; mostly 30 mg/kg subcutaneously every other day; cited from earlier work
[2] = at doses where antitumor activity has been seen; cited from earlier work
[3] = Early mouse development (body weight of newborn mice); conditions: injected into 7 and 17 day-old BALB/c mice
liver regeneration = assay: Hepatectomy model (liver regeneration); type: in vivo, C57BL/6J mice
Method: Male C57BL/6J mice underwent a partial hepatectomy through a midline incision after general anesthesia with isoflourane^33. Free or conjugated TNP-470 (30 mg/kg) were given s.c. every other day for 8 days beginning on the day of surgery according to the scheme described in FIG. 4a. Alternatively, the doses given were 60 mg/kg the day of surgery and 4 days later or 120 mg/kg once on the day of the partial hepatectomy. The liver was harvested on the 8th day, weighed and analyzed by histology.

A2058 human melanoma = assay: Antitumor activity in SCID mice bearing s.c. A2058 human melanoma; type: in vivo
Excerpt: Each group consisted of 5 mice.

[4] = cited from earlier work
[5] = clinical pharmacokinetics, comparison value in words; cited from earlier work

SMILES | effect on vascular sprouts (chick aortic ring; 50 pg/ml) | effect on vascular sprouts (chick aortic ring; 100 pg/ml) | weight loss (LLC) | inhibition of growth of human tumors [1] | inhibition of growth of metastatic tumors [1] | inhibition of growth of murine tumors [1] | adverse effects in patients [2] | effect on growth / weight gain in normal development [3] | inhibition of liver regeneration (liver regeneration; 60 mg/kg every four days (q.4.d.)) | inhibition of liver regeneration (liver regeneration; single injection of 120 mg/kg on the day of hepatectomy) | T/C (mean tumor volume treated / untreated control) (A2058 human melanoma; 30 mg/kg TNP-equiv.) | survival (A2058 human melanoma; free or conjugated TNP-470, 30 mg/kg TNP-equiv.) | body weight in animals ([4]; animals receiving TNP-470) | toxicity to mice at the higher doses ([4]; doses of 60 and 90 mg/kg/q.o.d., mice) | splenic weight ([4]; two reports) | t1/2α [5]
CO[C@@H]1[C@H](OC(=O)NC(=O)CCl)CC[C@]2(CO2)[C@H]1[C@@]1(C)O[C@@H]1CC=C(C)C [TNP-470, O-(chloracetyl-carbamoyl) fumagillol] | reduced the number and length of vascular sprouts | completely prevented outgrowth | did | up to 100% | up to 100% | up to 91% | neurotoxicity (malaise, rare seizures, asthenia, anxiety and dysphoria) | inhibited growth, by inhibiting weight gain | did not inhibit liver regeneration | did not inhibit liver regeneration | 0.34 | increased survival | weight loss or failure to gain weight | known to be toxic | decrease in splenic weight | –
COc1cccc2c1C(=O)c1c(O)c3c(c(O)c1C2=O)C[C@@](O)(C(=O)CO)C[C@@H]3O[C@H]1C[C@H](N)[C@H](O)[C@H](C)O1 [doxorubicin] | – | – | – | – | – | – | – | – | – | – | – | – | – | – | – | few minutes
